Measurements: PubChem BioAssay (NCI)
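These data come from cells grown in 96-well plates and exposed to compound for 48 hours at five concentrations. TGI denotes the concentration required for complete inhibition of growth.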

Columns and labels:
Test in all cases: NCI-60 cell line screen, 48 h
[1] = tested on: 786-0 renal
[2] = tested on: A498 renal
[3] = tested on: A549 NSCLC
[4] = tested on: ACHN renal
[5] = tested on: CAKI-1 renal
[6] = tested on: CCRF-CEM leukemia
[7] = tested on: COLO 205 colon
[8] = tested on: DU-145 prostate
[9] = tested on: EKVX NSCLC
[10] = tested on: HCC-2998 colon
[11] = tested on: HCT-116 colon
[12] = tested on: HCT-15 colon
[13] = tested on: HL-60(TB) leukemia
[14] = tested on: HOP-62 NSCLC
[15] = tested on: HOP-92 NSCLC
[16] = tested on: HS 578T breast
[17] = tested on: HT29 colon
[18] = tested on: IGROV1 ovarian
[19] = tested on: K-562 leukemia
[20] = tested on: KM12 colon
[21] = tested on: LOX IMVI melanoma
[22] = tested on: M14 melanoma
[23] = tested on: MALME-3M melanoma
[24] = tested on: MCF7 breast
[25] = tested on: MDA-MB-231 breast
[26] = tested on: MDA-MB-435
[27] = tested on: MDA-N
[28] = tested on: MOLT-4 leukemia
[29] = tested on: NCI-H226 lung
[30] = tested on: NCI-H23 lung
[31] = tested on: NCI-H460 lung
[32] = tested on: NCI-H522 lung
[33] = tested on: NCI/ADR-RES ovarian
[34] = tested on: OVCAR-3 ovarian
[35] = tested on: OVCAR-4 ovarian
[36] = tested on: OVCAR-5 ovarian
[37] = tested on: OVCAR-8 ovarian
[38] = tested on: PC-3 prostate
[39] = tested on: RPMI-8226 leukemia
[40] = tested on: RXF 393 renal
[41] = tested on: SF-268 CNS
[42] = tested on: SF-295 CNS
[43] = tested on: SF-539 CNS
[44] = tested on: SK-MEL-2 melanoma
[45] = tested on: SK-MEL-28 melanoma
[46] = tested on: SK-MEL-5 melanoma
[47] = tested on: SK-OV-3 ovarian
[48] = tested on: SN12C renal
[49] = tested on: SNB-19 CNS
[50] = tested on: SR leukemia
[51] = tested on: SW-620 colon
[52] = tested on: T-47D breast
[53] = tested on: U251 CNS
[54] = tested on: UACC-257 melanoma
[55] = tested on: UACC-62 melanoma
[56] = tested on: UO-31 renal
[57] = tested on: BT-549 breast
[58] = tested on: SNB-75 CNS
[59] = tested on: TK-10 renal

c1cc(NC2=NCCO2)c2c(c1)OCO2
TGI [1]: > 100 µM | TGI [2]: > 100 µM | TGI [3]: > 100 µM | TGI [4]: > 100 µM | TGI [5]: > 100 µM | TGI [6]: > 100 µM | TGI [7]: > 100 µM | TGI [8]: > 100 µM | TGI [9]: > 100 µM | TGI [10]: > 100 µM | TGI [11]: > 100 µM | TGI [12]: > 100 µM | TGI [13]: > 100 µM | TGI [14]: > 100 µM | TGI [15]: > 100 µM | TGI [16]: > 100 µM | TGI [17]: > 100 µM | TGI [18]: > 100 µM | TGI [19]: > 100 µM | TGI [20]: > 100 µM | TGI [21]: > 100 µM | TGI [22]: > 100 µM | TGI [23]: > 100 µM | TGI [24]: > 100 µM | TGI [25]: > 100 µM | TGI [26]: > 100 µM | TGI [27]: > 100 µM | TGI [28]: > 100 µM | TGI [29]: > 100 µM | TGI [30]: > 100 µM | TGI [31]: > 100 µM | TGI [32]: > 100 µM | TGI [33]: > 100 µM | TGI [34]: > 100 µM | TGI [35]: > 100 µM | TGI [36]: > 100 µM | TGI [37]: > 100 µM | TGI [38]: > 100 µM | TGI [39]: > 100 µM | TGI [40]: > 100 µM | TGI [41]: > 100 µM | TGI [42]: > 100 µM | TGI [43]: > 100 µM | TGI [44]: > 100 µM | TGI [45]: > 100 µM | TGI [46]: > 100 µM | TGI [47]: > 100 µM | TGI [48]: > 100 µM | TGI [49]: > 100 µM | TGI [50]: > 100 µM | TGI [51]: > 100 µM | TGI [52]: > 100 µM | TGI [53]: > 100 µM | TGI [54]: > 100 µM | TGI [55]: > 100 µM | TGI [56]: > 100 µM

O=[N+]([O-])c1ccc(C(=Nc2ccccc2)SSC(=Nc2ccccc2)c2ccc([N+](=O)[O-])o2)o1
TGI [1]: 4.08 µM | TGI [4]: 5.21 µM | TGI [57]: 3.69 µM | TGI [5]: 4.67 µM | TGI [7]: 2.44 µM | TGI [8]: 3.6 µM | TGI [9]: 3.48 µM | TGI [10]: 3.41 µM | TGI [11]: 2.95 µM | TGI [12]: 2.2 µM | TGI [13]: 8.61 µM | TGI [14]: 6.23 µM | TGI [15]: 6.22 µM | TGI [16]: 5.34 µM | TGI [17]: 4.1 µM | TGI [18]: 3.51 µM | TGI [20]: 4.15 µM | TGI [21]: 3.83 µM | TGI [22]: 4.85 µM | TGI [23]: 5.09 µM | TGI [25]: 7.92 µM | TGI [26]: 6.17 µM | TGI [27]: 12.4 µM | TGI [28]: > 24 µM | TGI [29]: 56.4 µM | TGI [30]: 3.38 µM | TGI [31]: > 25.5 µM | TGI [32]: 0.755 µM | TGI [33]: 7.43 µM | TGI [34]: 3.38 µM | TGI [35]: 3 µM | TGI [36]: 5.04 µM | TGI [37]: 3.75 µM | TGI [38]: 4.03 µM | TGI [40]: 4.55 µM | TGI [41]: 4.4 µM | TGI [42]: 8.31 µM | TGI [43]: 4.01 µM | TGI [44]: 6.15 µM | TGI [45]: 7.04 µM | TGI [46]: 20.9 µM | TGI [47]: 14.3 µM | TGI [48]: 4.48 µM | TGI [49]: 4.07 µM | TGI [58]: 3.45 µM | TGI [50]: > 100 µM | TGI [52]: 5.79 µM | TGI [59]: 13.9 µM | TGI [53]: 2.24 µM | TGI [54]: > 21.9 µM | TGI [55]: 3.4 µM | TGI [56]: 2.82 µM
